Results reported in ChEMBL document CHEMBL5729007, “Triaryl compounds for treatment of PD-L1 diseases” (2022).

The compounds below were run against Programmed cell death 1 ligand 1 (Homo sapiens, UniProt Q9NZQ7) (assay: Enzyme-Linked Immunosorbent Assay—ELISA: 96 Well plates were coated with […] of human PD-L1 (obtained from R&D) in PBS overnight at 4° C. The wells were then blocked with 2% BSA in PBS (W/V) with 0.05% TWEEN-20 for 1 hour at 37° C. The plates were washed 3 times with PBS/0.05% TWEEN-20 and the compounds were serial diluted (1:5) in dilution medium and added to the ELISA plates. Human PD-1 and biotin 0.31 μg/mL (ACRO Biosystems) were added and incubated for 1 hour at 37° C. then washed 3 times with PBS/0.05% TWEEN-20. A second block was performed with 2% BSA in PBS (W/V)/0.05% TWEEN-20 for 10 min at 37° C. and the plates were washed 3 times with PBS/0.05% TWEEN-20. Streptavidin-HRP was added for 1 hour at 37° C. then the plates were washed 3 times with PBS/0.05% TWEEN-20. TMB substrate was added and reacted for 20 min at 37° C. A stop solution (2 N aqueous H2SO4) was added. The absorbance was read at 450 nm using a micro-plate spectrophotometer.).
Sequence of Programmed cell death 1 ligand 1 (Q9NZQ7 whole entry): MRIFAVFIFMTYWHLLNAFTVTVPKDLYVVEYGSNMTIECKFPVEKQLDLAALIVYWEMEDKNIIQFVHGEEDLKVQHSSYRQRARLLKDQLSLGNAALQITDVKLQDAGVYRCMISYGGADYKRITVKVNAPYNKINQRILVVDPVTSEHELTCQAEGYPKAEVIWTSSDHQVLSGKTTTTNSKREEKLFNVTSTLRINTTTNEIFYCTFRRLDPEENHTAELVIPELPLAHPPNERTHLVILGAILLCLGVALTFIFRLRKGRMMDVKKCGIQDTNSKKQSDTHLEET

Structure (SMILES) | IC50
COc1cc(-c2cccc(-c3cccc(Nc4nccc5nccnc45)c3C)c2Cl)cc(F)c1CN[C@@H]1CCOC[C@@H]1O | < 10 nM
COc1cc(-c2cccc(-c3cccc(NC(=O)c4cn(C)c(=O)n(C)c4=O)c3Cl)c2Cl)cc(F)c1CN[C@@H]1CCOC[C@@H]1O | < 10 nM
COc1cc(-c2cccc(-c3cccc(NC(=O)c4cn(C)c(=O)n(C)c4=O)c3C)c2C)cc(F)c1CN | < 10 nM
COc1cc(-c2cccc(-c3cccc(NC(=O)c4cnc(C(N)=O)cn4)c3C)c2C)cc(F)c1CN | < 10 nM
COc1cc(-c2cccc(-c3cccc(NC(=O)c4cn(C)c(=O)n(C)c4=O)c3Cl)c2Cl)cc(F)c1CN[C@@H]1CNC(=O)C1 | < 10 nM
COc1cc(-c2cccc(-c3cccc(NC(=O)c4cn(C)c(=O)n(C)c4=O)c3C)c2C)cc(F)c1CN(C)CCO | < 10 nM
COc1cc(-c2cccc(-c3cccc(NC(=O)c4ccc(C(N)=O)cn4)c3C)c2C)cc(F)c1CN | < 10 nM
COc1cc(-c2cccc(-c3cccc(NC(=O)c4cncn(C)c4=O)c3C)c2Cl)cc(F)c1CN[C@@H]1CNC(=O)C1 | < 10 nM
COc1cc(-c2cccc(-c3cccc(NC(=O)c4ccc(OCC(=O)O)cn4)c3C)c2C)cc(F)c1CN | < 10 nM
COc1cc(-c2cccc(-c3cccc(NC(=O)c4cn(C)c(=O)n(C)c4=O)c3F)c2Cl)cc(F)c1CNCC1CCC(=O)N1 (stereo not given) | < 10 nM
